Measured values published in patent publication US12643884B2, “1-(2-(4-cyclopropyl-1H-1,2,3-triazol-1-yl)acetyl)-4-hydroxypyrrolidine-2-carboxa|mide derivatives as VHL inhibitors for the treatment of anemia” (Genentech, Inc., priority 2020, dated 2026).

Key:
VHL = molecular target: T1, VHL (Homo sapiens, UniProt P40337); assay: VHL nanoBRET (+Digitonin); assay type: cell-based
T1 construct: expressed in transfected cells

[1] = molecular target: T2, NanoLuc VHL fusion protein stably expressed in HEK 293 cells (Homo sapiens, UniProt P40337); assay: VHL HEK-293 BRET Assay (VHL NanoBRET Target Engagement Assay); assay type: cell-based; conditions: for IC50: HEK293 cells, nanoBRET, geometric mean where more than one measurement, read-out: VHL binding in cells (HEK293 nanoBRET); for Ratio cell permeability shift: ratio of nanoBRET in cells to nanoBRET +Digitonin
T2 construct: expressed in transfected cells
T2 sequence (P40337 whole entry, the tested form may be a part): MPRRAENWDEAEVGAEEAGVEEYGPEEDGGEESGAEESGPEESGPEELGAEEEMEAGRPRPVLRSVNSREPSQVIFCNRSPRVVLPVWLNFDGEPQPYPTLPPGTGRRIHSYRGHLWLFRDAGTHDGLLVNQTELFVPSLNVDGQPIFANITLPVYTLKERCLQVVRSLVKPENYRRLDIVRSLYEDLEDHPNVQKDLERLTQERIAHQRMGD
T2 sequence (Q15370 whole entry partner, the tested form may be a part): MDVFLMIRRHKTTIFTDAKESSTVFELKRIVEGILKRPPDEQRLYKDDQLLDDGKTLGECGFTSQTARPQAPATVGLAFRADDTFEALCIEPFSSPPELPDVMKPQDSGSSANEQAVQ
T2 sequence (Q15369 whole entry partner, the tested form may be a part): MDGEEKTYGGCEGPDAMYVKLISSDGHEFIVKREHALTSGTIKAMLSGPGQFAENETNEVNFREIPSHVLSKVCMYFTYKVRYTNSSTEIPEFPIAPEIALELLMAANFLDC
Procedure: The VHL NanoBRET™ Target Engagement Assay analyzes the apparent affinity of test compounds for VHL in cells by competitive displacement of a VHL NanoBRET™ tracer reversibly bound to a NanoLuc® VHL fusion protein stably expressed in the cells.
Test compounds were transferred to the assay plate (384 Well White Non-Binding Corning Assay Plates (Corning-3574)) using an Echo 555 Liquid Handler (Labcyte) in 2.5 nL increments and, as appropriate, intermediate stock concentrations of compounds, in order to prepare a titration series. 50 nL of control compound (10 mM; parental unlabeled VHL antagonist; see structure below) and 50 nL of DMSO (negative control) were dispensed into the appropriate control wells. DMSO was backfilled to a final volume of 50 nL as required. 50 nl per well of 1 mM VHL NanoBRET™ Tracer in DMSO (NanoBRET™ Tracer-PEG2-590 (see structure below)) was transferred into each well using an Echo 555 (ultimately yielding a final concentration of 1 uM). HEK 293 RT VHL-NanoLuc® stable cells were cultured in DMEM High Glucose with Pyruvate, 10% fetal bovine serum, 2 mg/mL of Geneticin Selective Antibiotic (50 mg/ml) and 2 mM HEPES (1 M). Cells were seeded in Opti-MEM (Life Technologies-11058-021), 1.7×10^5 cells/mL, 40 μl per well into the assay plate, centrifuged at 500 rpm for 30 seconds and incubated for 2 hours. Max Signal control wells consisted of DMSO only treated wells. Minimum Signal control wells contained of 10 uM parental unlabeled VHL antagonist (control compound—see structure below). 3× Complete Substrate plus Inhibitor Solution was prepared in Opti-MEM (consists of a 1:166 dilution of NanoBRET™ Nano-Glo® Substrate plus a 1:500 dilution of Extracellular NanoLuc® Inhibitor in Opti-MEM), and 20 ul was dispensed into each well of the 384-well plate and centrifuged at 1000 rpm for 1 minute, then incubated for 2 minutes at room temperature. Background Signal control wells were prepared without tracer for background correction steps.
Plates were read using a PerkinElmer Envision Reader (model 2104-0020) equipped with Luminescence option (Mirror: BRET2 Enh (PE Barcode 659), Emission Filter: Omega 610LP (Barcode 504), 2nd Emission Filter: Umbelliferone 460 (Barcode 207), Measurement height: 6.5 mm, Measurement time: 1 s). The raw BRET ratio values were calculated by dividing the acceptor emission value (610 nm) by the donor emission value (460 nm) for each sample. To correct for background, the BRET ratio in the absence of tracer (average of no-tracer control samples) was subtracted from the BRET ratio of each sample. Raw BRET units were converted to milliBRET units (mBU) by multiplying each raw BRET value by 1,000. The normalized NanoBRET™ signal was calculated relative to the Max Signal control wells (DMSO treated control wells) and the Minimum Signal control wells. Percentage inhibition was calculated relative to the Minimum Signal control and Maximum Signal control wells. IC50 values were derived by four parameter curve fitting using the Robust method.

T1 sequence (P40337 whole entry): as the sequence (P40337 whole entry, the tested form may be a part) above
T1 sequence (Q15370 whole entry partner): as the sequence (Q15370 whole entry partner, the tested form may be a part) above
T1 sequence (Q15369 whole entry partner): as the sequence (Q15369 whole entry partner, the tested form may be a part) above

EC50 (VHL) [nM]	IC50 [1] [nM]	Ratio cell permeability shift [1]	Structure (SMILES)
2110	2650	1.26	CNC(=O)[C@@H]1C[C@@H](O)CN1C(=O)[C@H](C(C)C)n1cc(-c2ccc[nH]2)nn1 (mixture of isomers) [Final product from Example S29, (2S, 4R)-4-hydroxy-N-methyl-1-[rac-(2S)-3-methyl-2-[4-(1H-pyrrol-2-yl)triazol-1-yl]butanoyl]pyrrolidine-2-carboxamide]
1200	1100	0.92	CNC(=O)[C@@H]1C[C@@H](O)CN1C(=O)[C@H](C(C)C)n1cc(-c2nccs2)nn1 (mixture of isomers) [Final product from Example S31, (2S, 4R)-4-hydroxy-N-methyl-1-[rac-(2S)-3-methyl-2-(4-thiazol-2-yltriazol-1-yl)butanoyl]pyrrolidine-2-carboxamide]
3800	2600	0.68	CNC(=O)[C@@H]1C[C@@H](O)CN1C(=O)[C@H](C(C)C)n1nnc2c(OC)cccc21 (single isomer, unassigned) [Final product from Example S25]
1980	1020	0.51	CNC(=O)[C@@H]1C[C@@H](O)CN1C(=O)[C@H](C(C)C)n1nnc2cc(F)c(F)cc21 (single isomer, unassigned) [Final product from Example S26]
970	920	0.95	CNC(=O)[C@@H]1C[C@@H](O)CN1C(=O)[C@H](C(C)C)n1cc(-c2ncco2)nn1 (single isomer, unassigned) [Final product from Example S30]
1120	900	0.80	CNC(=O)[C@@H]1C[C@@H](O)CN1C(=O)[C@H](C(C)C)n1cc(-c2cncs2)nn1 (single isomer, unassigned) [Final product from Example S33]
3100	3000	0.97	CNC(=O)[C@@H]1C[C@@H](O)CN1C(=O)[C@H](C(C)C)n1cc(C2CC2)nn1 (single isomer, unassigned) [Isomer A from Example S11]
> 100000	> 100000	–	CNC(=O)[C@@H]1C[C@@H](O)CN1C(=O)[C@@H](C(C)C)n1cc(C2CC2)nn1 (single isomer, unassigned) [Isomer B from Example S11]

Further lines, the compound ahead of its results:

Structure (SMILES)	EC50 (VHL) [nM]	IC50 [1] [nM]	Ratio cell permeability shift [1]
CNC(=O)[C@@H]1C[C@@H](O)CN1C(=O)[C@H](C1CCOCC1)n1cc(C2CC2)nn1 (single isomer, unassigned) [Final product from Example S6]	2680	8040	3.00
CNC(=O)[C@@H]1C[C@@H](O)CN1C(=O)[C@H](C1CCCCC1)n1cc(-c2ccco2)nn1 (single isomer, unassigned) [Final product from Example S23]	470	320	0.68
CNC(=O)[C@@H]1C[C@@H](O)CN1C(=O)[C@H](C(C)C)n1nnc2ccccc21 (single isomer, unassigned) [Final product from Example S24]	2840	2150	0.76
CNC(=O)[C@@H]1C[C@@H](O)CN1C(=O)[C@@H](n1cc(C2CC2)nn1)C(C)(C)C [Final product from Example S2, (2S,4R)-1-((S)-2-(4-cyclopropyl-1H-1,2,3-triazol-1-yl)-3,3-dimethylbutanoyl)-4-hydroxy-N-methylpyrrolidine-2-carboxamide]	2550	2990	1.17
CNC(=O)[C@@H]1C[C@@H](O)CN1C(=O)[C@H](C1CCCCC1)n1cc(C2CC2)nn1 [Final product from Example S3, (2S,4R)-1-((S)-2-cyclohexyl-2-(4-cyclopropyl-1H-1,2,3-triazol-1-yl)acetyl)-4-hydroxy-N-methylpyrrolidine-2-carboxamide]	1670	1610	0.96
CNC(=O)[C@@H]1C[C@@H](O)CN1C(=O)[C@@H](n1ccnn1)C(C)(C)C [Final product from Example S4, (2S,4R)-1-((S)-3,3-dimethyl-2-(1H-1,2,3-triazol-1-yl)butanoyl)-4-hydroxy-N-methylpyrrolidine-2-carboxamide]	12100	15200	1.26
CNC(=O)[C@@H]1C[C@@H](O)CN1C(=O)C(n1cc(C2CC2)nn1)C1(C)CCCCC1 (stereo partly drawn) [Final product from Example S5, (2S,4R)-1-[2-(4-cyclopropyltriazol-1-yl)-2-(1-methylcyclohexyl)acetyl]-4-hydroxy-N-methyl-pyrrolidine-2-carboxamide]	8450	10500	1.24
CNC(=O)[C@@H]1C[C@@H](O)CN1C(=O)[C@H](C1CCNCC1)n1cc(C2CC2)nn1 [Final product from Example S7, (2S,4R)-1-((S)-2-(4-cyclopropyl-1H-1,2,3-triazol-1-yl)-2-(piperidin-4-yl)acetyl)-4-hydroxy-N-methylpyrrolidine-2-carboxamide]	8960	–	>10.00
CNC(=O)[C@@H]1C[C@@H](O)CN1C(=O)[C@H](C1CCN(C)CC1)n1cc(C2CC2)nn1 [Final product from Example S8, (2S,4R)-1-((S)-2-(4-cyclopropyl-1H-1,2,3-triazol-1-yl)-2-(1-methylpiperidin-4-yl)acetyl)-4-hydroxy-N-methylpyrrolidine-2-carboxamide]	10800	–	>10.00
CNC(=O)[C@@H]1C[C@@H](O)CN1C(=O)[C@H](C1CCN(C(C)=O)CC1)n1cc(C2CC2)nn1 [Final product from Example S9, (2S,4R)-1-((S)-2-(1-acetylpiperidin-4-yl)-2-(4-cyclopropyl-1H-1,2,3-triazol-1-yl)acetyl)-4-hydroxy-N-methylpyrrolidine-2-carboxamide]	2670	69500	26.03
CNC(=O)[C@@H]1C[C@@H](O)CN1C(=O)[C@H](C1CCN(S(C)(=O)=O)CC1)n1cc(C2CC2)nn1 [Final product from Example S10, (2S,4R)-1-((S)-2-(4-cyclopropyl-1H-1,2,3-triazol-1-yl)-2-(1-(methylsulfonyl)piperidin-4-yl)acetyl)-4-hydroxy-N-methylpyrrolidine-2-carboxamide]	2070	10000	4.83
CNC(=O)[C@@H]1C[C@@H](OC(C)=O)CN1C(=O)[C@@H](n1cc(C2CC2)nn1)C(C)(C)C [Final product from Example S12, (3R,5S)-1-((S)-2-(4-cyclopropyl-1H-1,2,3-triazol-1-yl)-3,3-dimethylbutanoyl)-5-(methylcarbamoyl)pyrrolidin-3-yl Acetate]	92800	62800	0.68
CC(C)(C)[C@@H](C(=O)N1C[C@H](O)C[C@H]1C(=O)NC1CC1)n1cc(C2CC2)nn1 [Final product from Example S13, (2S,4R)—N-cyclopropyl-1-((S)-2-(4-cyclopropyl-1H-1,2,3-triazol-1-yl)-3,3-dimethylbutanoyl)-4-hydroxypyrrolidine-2-carboxamide]	6270	9680	1.54
CC(C)(C)[C@@H](C(=O)N1C[C@H](O)C[C@H]1C(=O)NCC(F)(F)F)n1cc(C2CC2)nn1 [Final product from Example S14, (2S,4R)-1-((S)-2-(4-cyclopropyl-1H-1,2,3-triazol-1-yl)-3,3-dimethylbutanoyl)-4-hydroxy-N-(2,2,2-trifluoroethyl)pyrrolidine-2-carboxamide]	5300	6550	1.24
